Data reported in ChEMBL document CHEMBL1152024, “Synthesis and bronchospasmolytic properties of some pyridazinone derivatives” (1993).

Columns and labels:
Format in all cases: functional
Cavia porcellus [1] = organism: Cavia porcellus; assay: Tested in vitro for its effect on tracheal relaxation in guinea pig trachea, activity expressed as percentage increase in the velocity of the flux of perfusion at concentration 30 ug/mL
Cavia porcellus [2] = organism: Cavia porcellus; assay: Tested in vitro for its effect on tracheal relaxation in guinea pig trachea, activity expressed as pD2 (-log of molar concentration which gives a half maximal relaxing effect)
Cavia porcellus [3] = organism: Cavia porcellus; assay: Tested in vitro for its effect on tracheal relaxation in guinea pig trachea, activity expressed as percentage increase in the velocity of the flux of perfusion at concentration 10 ug/mL

SMILES | Increase (Cavia porcellus [1]) | pD2 (Cavia porcellus [2]) | Increase (Cavia porcellus [3])
Nc1c(Cl)cc(C(O)CN2CCN(c3ccc(O)nn3)CC2)cc1Cl (configuration not stated) | 54% | – | –
CC(=O)Nc1ccc(C(O)CN2CCN(c3cnnc(O)c3Cl)CC2)cc1Cl (configuration not stated) | 4% | – | –
O=c1ccc(Cl)nn1CCN1CCN(CC(O)c2ccc(Cl)c(Cl)c2)CC1 (configuration not stated) | 46% | – | –
Nc1c(Cl)cc(C(O)CN2CCN(CCn3nc(Cl)ccc3=O)CC2)cc1Cl (configuration not stated) | 22% | – | –
CC(=O)Nc1ccc(C(O)CN2CCN(CCn3nc(Cl)ccc3=O)CC2)cc1Cl (configuration not stated) | 4% | – | –
Oc1ccc(N2CCN(CC(O)c3ccc(Cl)c(Cl)c3)CC2)nn1 (configuration not stated) | 87% | 4.79 | –
Oc1nncc(N2CCN(CC(O)c3ccc(Cl)c(Cl)c3)CC2)c1Cl (configuration not stated) | 3% | – | –
CC(=O)Nc1ccc(C(O)CN2CCN(c3ccc(O)nn3)CC2)cc1Cl (configuration not stated) | 23% | – | –
Nc1c(Cl)cc(C(O)CN2CCN(c3cnnc(O)c3Cl)CC2)cc1Cl (configuration not stated) | 19% | – | –
Cn1c(=O)c2nc[nH]c2n(C)c1=O.O [THEOPHYLLINE] | – | 4 | 55%
